# Experiments:
# c-myc mRNA, HL-60 = experiment: c-myc mRNA levels, real time RT-PCR; assay type: cell-based, human
# Protocol: RNA was extracted from 10^6 cells using TRIZOL® Reagent (Life Technologies). Following isopropanol precipitation, the pellet was washed in 75% aqueous ethanol and the RNA was dissolved in […] of diethyl pyrocarbonate (DEPC)-treated distilled water. Subsequently, the samples were stored at −80° C. RNA quantitation was performed by UV measurement at 260 nm. The cDNA synthesis was performed in a total volume of […], containing 1×TaqManÒ RT buffer, 5.5 mM MgCl2, 2 mM dNTPs mixture, 2.5 mM random hexamers, 4 U RNase inhibitor, 12.5 U MultiScriber RT (Perkin Elmer/Applied Biosystems) and […] of RNA. The reaction was performed for 10 min at 25° C., followed by 48° C. for 30 min and a 5 min incubation step at 95° C. After the reaction, […] of DEPC-treated distilled water was added to each sample and […] was used for each PCR.
# The PCR and subsequent analyses were performed in the GeneAmp 5700 Sequence Detection System (Applied Biosystems). Real-time quantitation was performed using the TaqMan technology of Applied Biosystems (Foster City, Calif., USA). c-Myc primers and probe sequences (5′ to 3′) were as follows: […], […] and […] (Applied Biosystems).
# PCR reactions were performed in triplicate. The PCR reaction mixture contained 300 nM of both primers, 150 nM TaqMan probe, and 1×TaqMan Universal Master Mix (Applied Biosystems). The reactions first were incubated at 50° C. for 2 min, followed by 10 min at 95° C. The PCR itself consisted of 40 cycles with 15 s at 95° C. and 1 min at 60° C. each. The fluorescence signal was measured during the last 30 s of the annealing/extension phase. After the PCR, a fluorescence threshold value was set and threshold cycle (Ct) values were determined, i.e., the fractional cycle at which the fluorescence signal reached this threshold. These values were used for further calculations.
# β-Actin (TaqMan PDAR control, Applied Biosystems) was used as an endogenous reference to correct for any differences in the amount of total RNA used for a reaction and to compensate for different levels of inhibition during reverse transcription of RNA into cDNA. c-Myc and β-actin expression were related to a standard curve derived from a serial dilution of K562 cDNA with dH2O. Also, c-Myc and β-actin quantities were expressed in terms of ng of K562 RNA yielding the same level of expression. Subsequently, normalization was achieved by dividing the expression level of c-Myc by the β-actin expression level. Finally, results were expressed as a percentage, where the level of c-Myc observed in the DMSO-treated samples was considered as 100%.
# Cells were treated with brusatol (25 ng/ml) or bruceantin (10 ng/ml) for 4 or 24 h and then analyzed for c-myc and β-actin mRNA using real time RT-PCR. Results are shown as percentage of c-myc mRNA expression of control (0.1%, v/v, DMSO) values. Results are the mean of triplicate samples (±standard deviation). c-Myc mRNA values were normalized relative to β-actin.
# BV173 = experiment: Antiproliferative activity, [3H]thymidine incorporation; assay type: cell-based; conditions: four days
# Protocol: (§1) Cellular viability was monitored by Trypan blue exclusion.
# (§2) ^bproliferation was assayed by [^3H]thymidine incorporation with quadruplicate samples, as described under “Materials and methods”.
# U937 = experiment: as above; assay type: cell-based; conditions: four days
# Protocol: as §1, §2
# [1] = tested on: Peripheral Human Lymphocytes; experiment: as above; assay type: cell-based; conditions: Lymphocyte, 72 h, three days, concanavalin A (0.4 μg/ml), read-out: Antiproliferative Activity (IC50, ng/ml)
# Protocol: as §1, §2
# RS4;11 = experiment: as above; assay type: cell-based; conditions: Homo sapiens, 96 h, four days, read-out: Antiproliferative Activity (IC50, ng/ml)
# Protocol: as §1, §2
# K562 = experiment: as above; assay type: cell-based; conditions: Homo sapiens, 96 h, four days, read-out: Antiproliferative Activity (IC50, ng/ml)
# Protocol: as §1, §2
# Daudi = experiment: as above; assay type: cell-based; conditions: four days
# Protocol: as §1, §2
# SUPB13 = experiment: as above; assay type: cell-based; conditions: 96 h, four days, read-out: Antiproliferative Activity (IC50, ng/ml)
# Protocol: as §1, §2
# Kasumi-1 = experiment: as above; assay type: cell-based; conditions: Homo sapiens, 96 h, four days, read-out: Antiproliferative Activity (IC50, ng/ml)
# Protocol: as §1, §2
# DHL-6 = experiment: as above; assay type: cell-based; conditions: four days
# Protocol: as §1, §2
# HL-60 = experiment: as above; assay type: cell-based; conditions: Homo sapiens, 96 h, four days, read-out: Antiproliferative Activity (IC50, ng/ml)
# Protocol: as §1, §2
# NB4 = experiment: as above; assay type: cell-based; conditions: four days
# Protocol: as §1, §2
# Reh = experiment: as above; assay type: cell-based; conditions: Homo sapiens, 96 h, four days, read-out: Antiproliferative Activity (IC50, ng/ml)
# Protocol: as §1, §2
SMILES,"decrease in c-Myc mRNA levels (c-myc mRNA, HL-60; 4 h treatment)","c-myc mRNA expression, percentage of control (c-myc mRNA, HL-60; Brusatol (25 ng/ml), 4 h) [%]","c-myc mRNA expression, percentage of control (c-myc mRNA, HL-60; Brusatol (25 ng/ml), 24 h) [%]","Antiproliferative Activity (IC50, ng/ml) (BV173)","Antiproliferative Activity (IC50, ng/ml) (U937)",IC50 [1] [ng/mL],IC50 (RS4;11) [ng/mL],IC50 (K562) [ng/mL],"Antiproliferative Activity (IC50, ng/ml) (Daudi)",IC50 (SUPB13) [ng/mL],IC50 (Kasumi-1) [ng/mL],"Antiproliferative Activity (IC50, ng/ml) (DHL-6)",IC50 (HL-60) [ng/mL],"Antiproliferative Activity (IC50, ng/ml) (NB4)",IC50 (Reh) [ng/mL],"c-myc mRNA expression, percentage of control (c-myc mRNA, HL-60; Bruceantin (10 ng/ml), 4 h) [%]","c-myc mRNA expression, percentage of control (c-myc mRNA, HL-60; Bruceantin (10 ng/ml), 24 h) [%]"
"COC(=O)[C@@]12OC[C@]34[C@H]([C@@H](O)[C@@H]1O)[C@@]1(C)CC(=O)C(O)=C(C)[C@@H]1C[C@H]3OC(=O)[C@H](OC(=O)C=C(C)C)[C@@H]24 [compound 1, brusatol]",about 50%,54 ± 2,11 ± 2,No effect,No effect,7.5 ± 0.3,12.5 ± 0.6,10 ± 0.2,No effect,37 ± 1.9,7 ± 0.6,No effect,25 ± 0.5,No effect,37 ± 5.6,–,–
"COC(=O)[C@@]12OC[C@]34[C@H]([C@@H](O)[C@@H]1O)[C@@]1(C)CC(=O)C(O)=C(C)[C@@H]1C[C@H]3OC(=O)[C@H](OC(=O)/C=C(\C)C(C)C)[C@@H]24 [compound 2, bruceantin]",–,–,–,No effect,No effect,3 ± 0.3,5.4 ± 0.9,6 ± 0.1,No effect,10 ± 0.5,3.2 ± 0.1,No effect,20 ± 0.1,No effect,12.5 ± 0.8,76 ± 9,16 ± 0

# Source: patent US20020193425A1, “Cancer chemopreventative compounds and compositions and methods of treating cancers” (priority 2001, published 2002)
